Source: patent US20250032623A1, “HETEROBIFUNCTIONAL COMPOUNDS AND THEIR USE IN TREATING DISEASE” (HALDA THERAPEUTICS OPCO, INC., priority 2021, published 2025)
pKd: −log10 of the molar value.

Key:
EGFR = biological target: T1, EGFR (Homo sapiens, UniProt P00533); assay: KdELECT binding assay, EGFR
T1 construct: purchased
Method: Exemplary compounds were tested for ability to bind to EGFR.
(§1) Compounds were tested using a KdELECT assay. Kinase-tagged T7 phage strains were prepared in an E. coli host derived from the BL21 strain. E. coli were grown to log-phase and infected with T7 phage and incubated with shaking at 32° C. until lysis. The lysates were centrifuged and filtered to remove cell debris. The remaining kinases were produced in HEK-293 cells and subsequently tagged with DNA for qPCR detection. Streptavidin-coated magnetic beads were treated with biotinylated small molecule ligands for 30 minutes at room temperature to generate affinity resins for kinase assays. The liganded beads were blocked with excess biotin and washed with blocking buffer (SeaBlock (Pierce), 1% BSA, 0.05% Tween 20, 1 mM DTT) to remove unbound ligand and to reduce non-specific binding. Binding reactions were assembled by combining kinases, liganded affinity beads, and test compounds in 1× binding buffer (20% SeaBlock, 0.17×PBS, 0.05% Tween 20, 6 mM DTT). Test compounds were prepared as 111× stocks in 100% DMSO. Kd values were determined using an 11-point 3-fold compound dilution series with three DMSO control points. All compounds for Kd measurements are distributed by acoustic transfer (non-contact dispensing) in 100% DMSO. The compounds were then diluted directly into the assays such that the final concentration of DMSO was 0.9%. All reactions performed in polypropylene 384-well plate. Each was a final volume of 0.02 mL. The assay plates were incubated at room temperature with shaking for 1 hour and the affinity beads were washed with wash buffer (1× PBS, 0.05% Tween 20). The beads were then re-suspended in elution buffer (1× PBS, 0.05% Tween 20, 0.5 μM nonbiotinylated affinity ligand) and incubated at room temperature with shaking for 30 minutes. The kinase concentration in the eluates was measured by qPCR.

[1] = biological target: T2, EGFR WT (amino acids 669-1011, Accession Number NP_005219.2) (Homo sapiens, UniProt P00533); assay: KdELECT binding assay (Eurofins Discovery), EGFR WT
T2 construct: purchased Eurofins Discovery; host or cells: bacteria (E. coli, BL21-derived, T7 phage)
T2 sequence (P00533 669-1011): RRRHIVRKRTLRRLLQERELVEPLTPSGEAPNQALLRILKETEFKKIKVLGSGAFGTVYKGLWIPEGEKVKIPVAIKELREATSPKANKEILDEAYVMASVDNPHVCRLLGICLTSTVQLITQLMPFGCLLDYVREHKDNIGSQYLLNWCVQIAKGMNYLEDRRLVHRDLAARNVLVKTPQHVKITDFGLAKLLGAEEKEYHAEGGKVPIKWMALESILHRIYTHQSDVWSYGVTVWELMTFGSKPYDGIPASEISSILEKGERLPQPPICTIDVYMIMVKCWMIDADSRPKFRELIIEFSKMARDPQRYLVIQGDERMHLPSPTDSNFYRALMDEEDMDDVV
Method: (§2) Exemplary compounds were tested for ability to bind to EGFR WT (amino acids 669-1011, Accession Number NP_005219.2) or EGFR T790M, L858R (amino acids 669-1011 Accession Number NP_005219.2) expressed from bacteria or mammalian cells, respectively. Compounds were tested using the KdELECT assay at Eurofins Discovery.
as §1, with “Kinase-tagged” for “Compounds were tested using a KdELECT assay. Kinase-tagged”

[2] = biological target: T3, EGFR T790M, L858R (amino acids 669-1011 Accession Number NP_005219.2) (Homo sapiens, UniProt P00533, L858R/T790M); assay: KdELECT binding assay (Eurofins Discovery), EGFR T790M, L858R; conditions: read-out: EGFR DM Kd
T3 construct: purchased Eurofins Discovery; host or cells: mammalian cells (HEK-293)
T3 sequence (P00533 669-1011 T790M/L858R): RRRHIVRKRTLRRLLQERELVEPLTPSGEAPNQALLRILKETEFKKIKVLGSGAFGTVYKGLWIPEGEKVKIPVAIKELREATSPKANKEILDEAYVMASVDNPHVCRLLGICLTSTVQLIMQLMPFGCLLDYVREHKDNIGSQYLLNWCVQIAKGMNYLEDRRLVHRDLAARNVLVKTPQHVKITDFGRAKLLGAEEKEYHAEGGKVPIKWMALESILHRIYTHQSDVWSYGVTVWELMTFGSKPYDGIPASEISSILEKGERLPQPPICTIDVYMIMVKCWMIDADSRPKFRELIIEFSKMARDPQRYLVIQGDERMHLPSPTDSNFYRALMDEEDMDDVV
Method: as §2
as §1, with “Kinase-tagged” for “Compounds were tested using a KdELECT assay. Kinase-tagged”

HEK293 cells = assay: Cellular growth inhibition assay (CellTiter-Glo), HEK293 cells; assay type: cell-based; conditions: Homo sapiens, 72 h, three days compound treatment, CellTiter-Glo 2.0, read-out: CTG HEK293 GI50
Method: (§3) Exemplary compounds were tested for ability to inhibit the proliferation of HEK293 cells or HeLa cells.
(§4) HEK293 and HeLa cells were cultured in DMEM medium supplemented with 10% fetal bovine serum and 1% Penn/Strep. Cells were seeded in white 384-well plates at 500 cells/well in […] complete medium. Following seeding, plates were spun at 300×g for three minutes and cultured at 37° C. with 5% CO2 in a humidified tissue culture incubator.
(§5) After 24 hours, compounds were titrated in 100% DMSO and diluted in complete cell culture medium. […] of compound/media mixture was added to cells to bring total volume in well to […]. DMSO alone was used as a negative control. P lates were then spun at 300×g for three minutes and stored at 37° C. with 5% CO2 for three days.
(§6) On Day 0 and Day 3 of compound treatment, cell viability was quantified with CellTiter-Glo 2.0 reagent (Promega). After equilibrating microplates at room temperature for 30 minutes, 25 μL CellTiter-Glo 2.0 reagent was dispensed into each well to bring total volume to […]. Plates were mixed on shaker for 2 minutes at 500 rpm, followed by a 10-minute incubation at room temperature. Following a quick spin, luminescence readings were measured with an EnVision Plate Reader. Data was normalized to DMSO treated Day 0 and Day 3 readings. A four-parameter non-linear regression curve fit was applied to dose-response data in GraphPad Prism data analysis software to determine the half maximal growth inhibitory concentration (GI50) for each compound.

HeLa cells = assay: Cellular growth inhibition assay (CellTiter-Glo), HeLa cells; assay type: cell-based; conditions: Homo sapiens, 72 h, three days compound treatment, CellTiter-Glo 2.0, read-out: CTG HELA GI50
Method: as §3, §4, §5, §6

T1 sequence (P00533 25-1210): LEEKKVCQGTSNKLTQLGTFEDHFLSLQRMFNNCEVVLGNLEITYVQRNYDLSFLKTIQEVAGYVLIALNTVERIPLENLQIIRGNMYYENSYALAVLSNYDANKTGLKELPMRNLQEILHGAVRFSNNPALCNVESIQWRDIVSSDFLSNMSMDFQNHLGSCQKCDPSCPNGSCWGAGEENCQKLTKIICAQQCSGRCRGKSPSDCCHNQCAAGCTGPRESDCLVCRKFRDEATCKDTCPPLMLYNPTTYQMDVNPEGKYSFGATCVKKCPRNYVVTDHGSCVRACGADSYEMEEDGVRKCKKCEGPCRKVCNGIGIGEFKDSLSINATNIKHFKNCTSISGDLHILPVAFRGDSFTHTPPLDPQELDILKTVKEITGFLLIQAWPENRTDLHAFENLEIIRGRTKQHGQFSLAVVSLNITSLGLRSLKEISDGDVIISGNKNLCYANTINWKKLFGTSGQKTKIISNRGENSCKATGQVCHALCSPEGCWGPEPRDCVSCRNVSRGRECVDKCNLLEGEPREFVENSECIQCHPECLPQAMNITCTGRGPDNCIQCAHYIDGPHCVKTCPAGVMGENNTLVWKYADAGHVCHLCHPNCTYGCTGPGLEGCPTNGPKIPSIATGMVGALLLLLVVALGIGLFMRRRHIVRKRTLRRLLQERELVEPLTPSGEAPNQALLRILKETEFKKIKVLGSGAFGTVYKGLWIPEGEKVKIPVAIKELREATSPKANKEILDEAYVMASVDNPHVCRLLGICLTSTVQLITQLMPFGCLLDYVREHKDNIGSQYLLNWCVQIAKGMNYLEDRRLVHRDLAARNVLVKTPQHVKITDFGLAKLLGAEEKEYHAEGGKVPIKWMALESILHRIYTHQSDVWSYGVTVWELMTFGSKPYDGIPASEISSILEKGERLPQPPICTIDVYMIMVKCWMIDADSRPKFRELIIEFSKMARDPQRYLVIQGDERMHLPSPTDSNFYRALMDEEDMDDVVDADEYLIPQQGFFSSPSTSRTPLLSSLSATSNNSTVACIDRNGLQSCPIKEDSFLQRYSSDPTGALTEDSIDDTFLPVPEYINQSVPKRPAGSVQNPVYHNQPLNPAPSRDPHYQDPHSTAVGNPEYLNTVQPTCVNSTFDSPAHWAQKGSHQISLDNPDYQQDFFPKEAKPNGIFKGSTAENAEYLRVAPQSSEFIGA

Compound | pKd (EGFR) | pKd [1] | pKd [2] | GI50 (HEK293 cells) [nM] | GI50 (HeLa cells) [nM]
C=CC(=O)Nc1cc(Nc2nccc(-c3cn(C)c4ccccc34)n2)c(OC)cc1N(C)CCN(C)CCCCCCCCNS(=O)(=O)c1ccc(Nc2ncc(Br)c(Nc3cccc(F)c3C(N)=O)n2)cc1 [Compound I-28, 2-[[5-bromo-2-[4-[8-[2-[5-methoxy-N-methyl-4-[[4-(1-methylindol-3-yl)pyrimidin-2-yl]amino]-2-(prop-2-enoylamino)anilino]ethyl-methyl-amino]octylsulfamoyl]anilino]pyrimidin-4-yl]amino]-6-fluoro-benzamide] | > 7.30 | 6.30 to 7.30 | > 7.30 |  | 
C=CC(=O)Nc1cc(Nc2nccc(-c3cn(C)c4ccccc34)n2)c(OC)cc1N(C)CCN(C)CCOCCOCCOCCOCCOCCOCCNS(=O)(=O)c1ccc(Nc2ncc(Br)c(Nc3cccc(F)c3C(N)=O)n2)cc1 [Compound I-34, 2-[[5-bromo-2-[4-[2-[2-[2-[2-[2-[2-[2-[2-[5-methoxy-N-methyl-4-[[4-(1-methylindol-3-yl)pyrimidin-2-yl]amino]-2-(prop-2-enoylamino)anilino]ethyl-methyl-amino]ethoxy]ethoxy]ethoxy]-ethoxy]ethoxy]ethoxy]ethylsulfamoyl]anilino]pyrimidin-4-yl]amino]-6-fluoro-benzamide] | > 7.30 | 6.30 to 7.30 | > 7.30 |  | 
C=CC(=O)Nc1cc(Nc2nccc(-c3cn(C)c4ccccc34)n2)c(OC)cc1N(C)CCN(C)CCOCCOCCOCCOCCON(C)C(=O)N1N=C(c2cc(F)ccc2F)SC1(CCCN)c1ccccc1 (centres unmarked) [Compound I-67] | > 7.30 | 6.30 to 7.30 | > 7.30 | 500 to 1500 | 500 to 1500
C=CC(=O)Nc1cc(Nc2nccc(-c3cn(C)c4ccccc34)n2)c(OC)cc1N(C)CCN(C)CCNC(=O)c1ccc(Nc2ncc3c(n2)N(C2CCCC2)[C@H](CC)C(=O)N3C)c(OC)c1 [Compound I-115, 4-[[(7R)-8-cyclopentyl-7-ethyl-5-methyl-6-oxo-7H-pteridin-2-yl]amino]-3-methoxy-N-[2-[2-[5-methoxy-N-methyl-4-[1[4-(1-methylindol-3-yl)pyrimidin-2-yl]amino]-2-(prop-2-enoylamino)anilino]ethyl-methyl-amino]ethyl]benzamide] | < 5.60 | < 5.60 | 6.30 to 7.30 | 500 to 1500 | 
CC[C@@H]1C(=O)N(C)c2cnc(Nc3ccc(C(=O)NCCOCCOCCN(C)C/C=C/C(=O)Nc4cc(Nc5nccc(-c6cn(C)c7ccccc67)n5)c(OC)cc4N(C)CCN(C)C)cc3OC)nc2N1C1CCCC1 [Compound I-117, 4-[[(7R)-8-cyclopentyl-7-ethyl-5-methyl-6-oxo-7H-pteridin-2-yl]amino]-N-[2-[2-[2-1[[(E)-4-1[2-[2-(dimethylamino)ethyl-methyl-amino]-4-methoxy-5-1[[4-(1-methylindol-3-yl)pyrimidin-2-yl]amino]anilino]-4-oxo-but-2-enyl]-methyl-amino]ethoxy]ethoxy]ethyl]-3-methoxy-benzamide] | < 5.60 | < 5.60 | 6.30 to 7.30 | 500 to 1500 | 
CC[C@@H]1C(=O)N(C)c2cnc(Nc3ccc(C(=O)NCCOCCOCCOCCOCCOCCOCCN(C)C/C=C/C(=O)Nc4cc(Nc5nccc(-c6cn(C)c7ccccc67)n5)c(OC)cc4N(C)CCN(C)C)cc3OC)nc2N1C1CCCC1 [Compound I-118, 4-[[(7R)-8-cyclopentyl-7-ethyl-5-methyl-6-oxo-7H-pteridin-2-yl]amino]-N-[2-[2-[2-[2-[2-[2-[2-[[(E)-4-[2-[2-(dimethylamino)ethyl-methyl-amino]-4-methoxy-5-[[4-(1-methylindol-3-yl)pyrimidin-2-yl]amino]anilino]-4-oxo-but-2-enyl]-methyl-amino]ethoxy]ethoxy]ethoxy]ethoxy]ethoxy]ethoxy]ethyl]-3-methoxy-benzamide] | < 5.60 | < 5.60 | 6.30 to 7.30 | 500 to 1500 | 
CCC1C(=O)N(C)c2cnc(Nc3ccc(C(=O)NCCOCCOCCN(C)CC=CC(=O)NC4CN(c5nc(Nc6cn(C)nc6OC)c6ncn(C)c6n5)CC4F)cc3OC)nc2N1C1CCCC1 [Compound I-120, 4-[[(7R)-8-cyclopentyl-7-ethyl-5-methyl-6-oxo-7H-pteridin-2-yl]amino]-N-[2-[2-[2-[[(E)-4-1[[(3R,4R)-4-fluoro-1-[6-1[(3-methoxy-1-methyl-pyrazol-4-yl)amino]-9-methyl-purin-2-yl]pyrrolidin-3-yl]amino]-4-oxo-but-2-enyl]-methylamino]ethoxy]ethoxy]ethyl]-3-methoxy-benzamide] | < 5.60 | < 5.60 | 6.30 to 7.30 | 500 to 1500 | 
CC[C@@H]1C(=O)N(C)c2cnc(Nc3ccc(C(=O)NCCOCCOCCOCCOCCOCCOCCN(C)C/C=C/C(=O)NC4CN(c5nc(Nc6cn(C)nc6OC)c6ncn(C)c6n5)C[C@H]4F)cc3OC)nc2N1C1CCCC1 (stereo partly drawn) [Compound I-121, 4-[[(7R)-8-cyclopentyl-7-ethyl-5-methyl-6-oxo-7H-pteridin-2-yl]amino]-N-[2-[2-[2-[2-[2-[2-[2-[[(E)-4-[1[(3R,4R)-4-fluoro-1-1[6-1[(3-methoxy-1-methyl-pyrazol-4-yl)amino]-9-methyl-purin-2-yl]pyrrolidin-3-yl]amino]-4-oxo-but-2-enyl]-methyl-amino]ethoxy]ethoxy]ethoxy]ethoxy]ethoxy]ethoxy]ethyl]-3-methoxy-benzamide] | 5.60 to 6.30 | 5.60 to 6.30 | 6.30 to 7.30 | 500 to 1500 | 
COc1cc(N(C)CCN(C)C)c(NC(=O)/C=C/CN(C)CCCN2CCN(CCCON(C)C(=O)N3N=C(c4cc(F)ccc4F)S[C@@]3(CCCN)c3ccccc3)CC2)cc1Nc1nccc(-c2cn(C)c3ccccc23)n1 [Compound I-146, (2S)-2-(3-aminopropyl)-5-(2,5-difluorophenyl)-N-[3-[4-1[3-[[(E)-4-1[2-[2-(dimethylamino)ethyl-methyl-amino]-4-methoxy-5-1[[4-(1-methylindol-3-yl)pyrimidin-2-yl]amino]anilino]-4-oxo-but-2-enyl]-methyl-amino]propyl]piperazin-1-yl]propoxy]-N-methyl-2-phenyl-1,3,4-thiadiazole-3-carboxamide] | 5.60 to 6.30 | 5.60 to 6.30 | > 7.30 |  | 500 to 1500
